Measured values as given in patent US8420861B2, “Anti-tumor compounds derived from 1,4,5,8-tetrachloroanthraquinone” (priority 2007, dated 2013).
Counter-ions that a name gives are not always drawn.

Key:
[1] = tested on: BOT-2 human breast cancer cells; test: Cytotoxicity by visual inspection / MTT assay, 100% cell kill at serial dilutions; type: cell-based; conditions: for Activity: Table of Side Chains, scale not given; for activity compared to mitoxantrone: cytotoxicity assay
From the text: (§1) The MTT assay was used to determine levels of 100% and 50% cell kill. In addition to activity against cancer mitoxantrone has been used to treat certain forms of multiple sclerosis and is approved by the FDA to treat both cancer and multiple sclerosis. Mitoxantrone also has significant immune modulatory effects and could be used to treat severe forms of collagen vascular disorders.
Testing of compounds in the MTT assay. In a 72 well plate, the BOT-2 human breast cancer cells were allowed to grow for 24 hours. Following this growth time, dilutions of the drug was added. The cells were checked for percentage of cell death at 24 and 48 hours. This checking was done by visual appearance of the cells. Rounded up floating cells or disrupted cells indicating cell death. Cells flattened and attached to the bottom of the tissue culture flask indicated alive and healthy cells. At 144 hours MTT.
Visual inspection assay: BOT-2 cancer cells after treatment with an anthracycline or cytotoxic anthraquinone compounds. The dead cells become rounded, detach and float. The compound is initially dissolved in 0.1 N hydrochloric acid or dilute acetic acid. Serial 1 to 4 dilutions of the compound are made with buffered tissue culture media and pipetted into a wells of a 72 well microtiter plate. Determination is made of 100% cell death at 24, 48 and 144 hours for each well. Controls are always run concurrently. […] Previous work has determined if 100% kill is noted there is never re-growth of the tumor cells.
A solution of 1,4,5,8-Tetrakis-[2-(2-aminoethyl)amino]anthraquinone dihydrochloride (T-4) was made of 10 mg/ml in de-ionized water. This was then diluted to 1 mg/ml. This solution was filtered to sterilize. Seventy micro liters (70 μl) of this was mixed with tissue culture media and added to 70 well plate. Two hundred ten (210) cells per well were previously grown for 24 hrs prior to adding the test drug. The test compounds were added in serial 1 to 3 dilutions. 1,4,5,8-Tetrakis-[2-(2-aminoethyl)amino]anthraquinone (T-4) was tested against mitoxantrone, epirubicin, and bis-1,4-aminoethylamino-5,8-dihydroxyanthraquinone. There was also a control in which no drug was added. […] The end point for positive cell kill was 100% cell death.
A solution of 1,4,5,8-Tetrakis-N,N-dimethylaminoethylaminoanthraquinone dihydrochloride was made of 10 mg/ml in de-ionized water. This was then diluted to 1 mg/ml. This solution was filtered to sterilize. 70 μl of this was mixed with tissue culture media and added to 70 well plate. Two hundred ten (210) cells per well were previously grown for 24 hrs prior to adding the test drug. The test compounds were added in serial 1 to 3 dilutions. The 1,4,5,8-Tetrakis-N,N-dimethylaminoethylaminoanthraquinone was tested against mitoxantrone (bis-1,4-hydroxyethylaminoethylamino-5,8-dihydroxyanthraquinone dihydrochloride), epirubicin, and 1,4-bis-[(aminoethyl)amino]anthraquinone. There was also a control in which no drug was added. […] The end point for positive cell kill was 100% cell death.

[2] = tested on: BOT-2 breast cancer cell line; test: Doublet combinations with other chemotherapy drugs, cell kill; type: cell-based, human; conditions: other drugs included docetaxel, gemcitabine and topotecan
From the text: as §1, with “The synthesized compounds tested were compared to mitoxantrone (Novantrone®) when tested in a tissue culture system using the BOT-2 breast cancer cell line. The” for “The”, “disorders. The compounds described in the present disclosure would be expected to have similar activities at a greater therapeutic efficacy.” for “disorders.”
These other drugs included docetaxel, gemcitabine and topotecan.

| Compound | Activity [1] | activity compared to mitoxantrone [1] | other results |
| --- | --- | --- | --- |
| O=C1c2c(NCCNCCO)ccc(NCCNCCO)c2C(=O)c2c(NCCNCCO)ccc(NCCNCCO)c21 [Designation T-1] | 5 | more active than mitoxantrone |  |
| O=C1c2c(NCCO)ccc(NCCO)c2C(=O)c2c(NCCO)ccc(NCCO)c21 [Designation T-3, 1,4,5,8-Tetrakis-[(2-hydroxyethyl)amino]anthraquinone] | 1 |  | activity in cytotoxicity assay ([1]; end point 100% cell death, 24, 48 and 144 hrs): inactive; 100% cell kill went out to (number of dilutions) ([1]; starting solution 1 mg/ml, end point 100% cell death, at 24, 48 and 144 hrs): 1 dilutions |
| NCCNc1ccc(NCCN)c2c1C(=O)c1c(NCCN)ccc(NCCN)c1C2=O [Designation T-4, 1,4,5,8-Tetrakis-[2-(2-aminoethyl)amino]anthraquinone] | 5 | more active than mitoxantrone | 100% cell kill went out to (number of 1:4 dilutions) ([1]; starting solution 1 mg/ml, end point 100% cell death): 5 1:4 dilutions |
| tetrakis-1,4,5,8-hydroxyalkylaminoethylaminoanthraquinone dihydrochloride |  |  | cell kill in doublet combination with other chemotherapy drugs [2]: synergistic cell kill (greater than additive) |
| CNCCN(C)c1ccc(NCCNCCO)c2c1C(=O)c1c(N(C)CCNC)ccc(N(C)CCNC)c1C2=O [T-2,2,2,1] | 5 |  |  |
| CN(C)CCNc1ccc(NCCO)c2c1C(=O)c1c(NCCN(C)C)ccc(NCCN(C)C)c1C2=O [T-2,2,2,3] | 5 |  |  |
| CN(C)c1ccc(NCCCl)c2c1C(=O)c1c(N(C)C)ccc(N(C)C)c1C2=O [T-2,2,2,8, 1,4,5-Tris-(N,N-dimethylamino),8-(2-chloroethylamino)anthraquinone] |  | more active than mitoxantrone |  |
| O=C1c2c(O)ccc(O)c2C(=O)c2c(NCCNCCO)ccc(NCCNCCO)c21 [mitoxantrone, bis-1,4-hydroxyethylaminoethylamino-5,8-dihydroxyanthraquinone dihydrochloride, reference compound] |  |  | cell kill in doublet combination with other chemotherapy drugs [2]: extent of synergism was not seen |
| CN(C)CCNc1ccc(NCCN(C)C)c2c1C(=O)c1c(NCCN(C)C)ccc(NCCN(C)C)c1C2=O [Designation T-2, 1,4,5,8-Tetrakis-[(2-N,N-dimethylaminoethyl)amino]anthraquinone] | 5 | more active than mitoxantrone |  |
